According to patent US20260217708A1, “FUSED BENZAZEPINE DERIVATIVES FOR USE IN THE TREATMENT OF CANCER AND EPILEPSY” (UCB BIOPHARMA SRL, priority 2023, published 2026):

Key:
[1] = molecular target: T1, system Xc^− (Homo sapiens, UniProt Q9UPY5); assay: [^14C]L-Cystine uptake assay; type: cell-based; set-up: endogenous in cells; host or cells: H4 cells; conditions: H4 cells, sodium-free HEPES buffer, 0.5 μM L-[14C]Cystine and 4.5 μM L-Cystine, 1 hour at 37° C.; read-out: pIC50 [^14C] L-Cystine uptake assay (converted)
T1 sequence (Q9UPY5 1-501): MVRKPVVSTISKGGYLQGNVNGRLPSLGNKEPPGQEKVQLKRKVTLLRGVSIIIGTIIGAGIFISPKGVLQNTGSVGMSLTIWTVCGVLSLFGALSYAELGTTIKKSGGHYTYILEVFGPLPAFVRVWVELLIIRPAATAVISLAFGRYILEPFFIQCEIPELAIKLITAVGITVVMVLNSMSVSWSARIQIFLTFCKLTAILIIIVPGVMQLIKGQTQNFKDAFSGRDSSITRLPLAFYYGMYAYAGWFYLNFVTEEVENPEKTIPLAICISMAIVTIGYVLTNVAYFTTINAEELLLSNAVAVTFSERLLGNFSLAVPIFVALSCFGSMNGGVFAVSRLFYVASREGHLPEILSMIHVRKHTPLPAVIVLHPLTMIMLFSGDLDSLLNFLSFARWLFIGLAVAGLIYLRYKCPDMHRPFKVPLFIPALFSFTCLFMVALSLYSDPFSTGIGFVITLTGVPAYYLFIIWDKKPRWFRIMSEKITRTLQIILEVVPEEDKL
T1 sequence (P08195 1-529 partner): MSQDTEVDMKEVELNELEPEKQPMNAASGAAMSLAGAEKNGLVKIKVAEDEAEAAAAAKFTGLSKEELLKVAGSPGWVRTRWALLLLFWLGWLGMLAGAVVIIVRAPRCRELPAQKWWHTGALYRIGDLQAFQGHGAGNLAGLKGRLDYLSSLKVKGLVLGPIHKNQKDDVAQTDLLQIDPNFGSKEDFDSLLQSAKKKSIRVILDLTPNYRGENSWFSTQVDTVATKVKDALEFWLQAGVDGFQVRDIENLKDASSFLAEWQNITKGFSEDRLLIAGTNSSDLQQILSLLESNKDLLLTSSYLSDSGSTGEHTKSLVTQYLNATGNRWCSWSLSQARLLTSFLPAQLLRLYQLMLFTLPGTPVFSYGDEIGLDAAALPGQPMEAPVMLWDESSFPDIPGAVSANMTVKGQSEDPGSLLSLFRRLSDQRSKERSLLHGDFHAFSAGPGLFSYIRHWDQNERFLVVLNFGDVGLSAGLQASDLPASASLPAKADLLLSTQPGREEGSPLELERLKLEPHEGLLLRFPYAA
Procedure, shortened: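 H4 cells at 5×10^4 cells/well in sodium-free HEPES buffer were preincubated 15 min with compounds (1% DMSO). Uptake of 0.5 μM [14C]L-cystine plus 4.5 μM unlabelled L-cystine ran 1 hour at 37° C on scintillating plates. IC50 was set between 1% DMSO and 50 μM Erastin controls and expressed as pIC50.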

[2] = molecular target: T1, system Xc^−; assay: Cystine-induced glutamate release assay; type: cell-based; set-up: endogenous in cells; host or cells: H4 cells; conditions: H4 cells, sodium-free HEPES buffer, 50 μM L-Cystine, 2 hours, Amplex Red glutamate readout; read-out: pIC50 Cystine-induced glutamate release assay (converted)
Procedure, shortened: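 H4 cells in sodium-free HEPES buffer (pH 7.4), 2 days after plating; glutamate release induced with 50 μM L-cystine plus compound (1% DMSO), 2 h at 37 °C. Supernatant glutamate measured by Amplex Red fluorescence; IC50/pIC50 derived between 1% DMSO and 50 μM erastin controls.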

Row | IC50 [1] | IC50 [2] | Structure (SMILES)
1 | 100 to 501 nM | 100 to 501 nM | O=C(CN1C(=O)Cc2ccccc2-c2cnc(CO)cc21)Nc1ccc(C(F)(F)F)cc1 [#60, 2-[3-(hydroxymethyl)-6-oxo-7H-pyrido[4,3-d][3]benzazepin-5-yl]-N-[4-(trifluoromethyl)phenyl]acetamide]
2 | < 15.8 nM | 15.8 to 39.8 nM | Cc1cc2c(c(C#N)n1)-c1ccccc1CC(=O)N2CC(=O)Nc1ccc(C(F)(F)F)cc1 [#61, 2-(1-cyano-3-methyl-6-oxo-7H-pyrido[4,3-d][3]benzazepin-5-yl)-N-[4-(trifluoromethyl)phenyl]acetamide]
3 | < 15.8 nM | 15.8 to 39.8 nM | Cc1cc2c(c(C)n1)-c1ccc(F)cc1CC(=O)N2CC(=O)Nc1ccc(C(F)(F)F)cc1 [#65, 2-(9-fluoro-1,3-dimeth-yl-6-oxo-7H-pyrido[4,3-d][3]benzazepin-5-yl)-N-[4-(trifluorometh-yl)phenyl]acetamide]
4 | 39.8 to 100 nM | 100 to 501 nM | Cc1cc2c(c(CO)n1)-c1ccccc1CC(=O)N2CC(=O)Nc1ccc(C(F)(F)F)cc1 [#66, 2-[1-(hydroxymethyl)-3-methyl-6-oxo-7H-pyrido[4,3-d][3]benz-azepin-5-yl]-N-[4-(trifluoromethyl)phen-yl]acetamide]
5 | 100 to 501 nM | 39.8 to 100 nM | COc1ncc2c(c1C)-c1cccnc1CC(=O)N2CC(=O)Nc1ccc(C(F)(F)F)cc1 [#67, 2-(4-methoxy-3-meth-yl-9-oxo-5,8,12-triaza-tricyclo[9.4.0.0^2,7]pentadeca-1(11),2(7), 3,5,12,14-hexaen-8-yl)-N-[4-(trifluoromethyl)-phenyl]acetamide]
6 | 15.8 to 39.8 nM | 39.8 to 100 nM | N#Cc1cc2c(cc1F)-c1cccnc1CC(=O)N2CC(=O)Nc1ccc(C(F)(F)F)cc1 [#69, 2-(9-cyano-10-fluoro-6-oxo-5H-pyrido[2,3-d][1]benzazepin-7-yl)-N-[4-(trifluoromethyl)-phenyl]acetamide]
7 | 15.8 to 39.8 nM | 39.8 to 100 nM | CCc1nc(C)cc2c1-c1ccccc1CC(=O)N2CC(=O)Nc1ccc(C(F)(F)F)cc1 [#72, 2-(1-ethyl-3-methyl-6-oxo-7H-pyrido[4,3-d][3]benzazepin-5-yl)-N-[4-(trifluoromethyl)phenyl]acetamide]
8 | 100 to 501 nM | 100 to 501 nM | Cc1cc2c(c(C3CC3)n1)-c1ccccc1CC(=O)N2CC(=O)Nc1ccc(C(F)(F)F)cc1 [#73, 2-(1-cyclopropyl-3-methyl-6-oxo-7H-pyrido[4,3-d][3]benzazepin-5-yl)-N-[4-(trifluoromethyl)phenyl]acetamide]
9 | 100 to 501 nM | 100 to 501 nM | COc1nc(C)cc2c1-c1cccnc1CC(=O)N2CC(=O)Nc1ccc(C(F)(F)F)nc1 [#79, 2-(3-methoxy-5-methyl-9-oxo-4,8,12-triazatri-cyclo[9.4.0.0^2,7]penta-deca-1(11),2,4,6,12,14-hexaen-8-yl)-N-[6-(tri-fluoromethyl)-3-pyridyl] acetamide]

The next lines start with the compound.

Row | Structure (SMILES) | IC50 [1] | IC50 [2]
10 | Cc1cc2c(c(C(F)F)n1)-c1ccccc1CC(=O)N2CC(=O)Nc1ccc(C(F)(F)F)cc1 [#56, 2-[1-(difluoromethyl)-3-methyl-6-oxo-7H-pyrido[4,3-d][3]benzazepin-5-yl]-N-[4-(trifluoromethyl)phenyl]acetamide] | 39.8 to 100 nM | 39.8 to 100 nM
11 | Cc1cc2c(c(C)n1)-c1cccnc1CC(=O)N2CC(=O)Nc1ccc(C(F)(F)F)cc1 [#57, 2-(3,5-dimethyl-9-oxo-4,8,12-triazatricyclo[9.4.0.0^2,7]pentadeca-1(11),2(7),3,5,12,14-hexaen-8-yl)-N-[4-(trifluoromethyl)phenyl]acetamide] | 15.8 to 39.8 nM | 15.8 to 39.8 nM
12 | Cc1cc2c(c(C)n1)-c1cccnc1CC(=O)N2CC(=O)Nc1ccc(C2CC2)cc1 [#58, N-(4-cyclopropylphenyl)-2-(3,5-dimethyl-9-oxo-4,8,12-triazatricyclo[9.4.0.0^2,7]pentadeca-1(11),2(7),3,5,12,14-hexaen-8-yl)acetamide] | 100 to 501 nM | 39.8 to 100 nM
13 | CC(=O)OCc1cc2c(cn1)-c1ccccc1CC(=O)N2CC(=O)Nc1ccc(C(F)(F)F)cc1 [#59, [6-oxo-5-[2-oxo-2-[4-(trifluoromethyl)anilino]ethyl]-7H-pyrido[4,3-d][3]benzazepin-3-yl]methyl acetate] | 100 to 501 nM | 100 to 501 nM
14 | Cc1cc2c(c(C)n1)-c1ccc(Cl)cc1CC(=O)N2CC(=O)Nc1ccc(C(F)(F)F)cc1 [#62, 2-(9-chloro-1,3-dimethyl-6-oxo-7H-pyrido[4,3-d][3]benzazepin-5-yl)-N-[4-(trifluoromethyl)phenyl]acetamide] | < 15.8 nM | 15.8 to 39.8 nM
15 | Cc1cc2c(c(C)n1)-c1cc(F)ccc1CC(=O)N2CC(=O)Nc1ccc(C(F)(F)F)cc1 [#63, 2-(10-fluoro-1,3-dimeth-yl-6-oxo-7H-pyrido[4,3-d][3]benzazepin-5-yl)-N-[4-(trifluoromethyl)-phenyl]acetamide] | < 15.8 nM | 15.8 to 39.8 nM
16 | Cc1cc2c(c(C)n1)-c1cccc(F)c1CC(=O)N2CC(=O)Nc1ccc(C(F)(F)F)cc1 [#64, 2-(8-fluoro-1,3-dimeth-yl-6-oxo-7H-pyrido [4,3-d][3]benzazepin-5-yl)-N-[4-(trifluorometh-yl)phenyl]acetamide] | < 15.8 nM | 15.8 to 39.8 nM
17 | N#Cc1c(F)ccc2c1-c1cccnc1CC(=O)N2CC(=O)Nc1ccc(C(F)(F)F)cc1 [#68, 2-(11-cyano-10-fluoro-6-oxo-5H-pyrido[2,3-d][1]benzazepin-7-yl)-N-[4-(trifluoromethyl)-phenyl]acetamide] | 39.8 to 100 nM | 39.8 to 100 nM
18 | Cc1cc2c(cn1)-c1ccc(C)nc1CC(=O)N2CC(=O)Nc1ccc(C(F)(F)F)cc1 [#71, 2-(5,13-dimethyl-9-oxo-4,8,12-triazatricyclo[9.4.0.0^2,7]pentadeca-1(11),2(7),3,5,12,14-hexaen-8-yl)-N-[4-(trifluoromethyl)phenyl]acetamide] | 100 to 501 nM | 100 to 501 nM
19 | COc1nc(C)cc2c1-c1cnnn1CC(=O)N2CC(=O)Nc1ccc(C(F)(F)F)cc1 [#74, 2-(14-methoxy-12-methyl-8-oxo-4,5,6,9,13-pentazatricyclo[8.4.0.0^2,6]tetradeca-1(1),2,4,11,13-pentaen-9-yl)-N-[4-(trifluoromethyl)phenyl]acetamide] | 100 to 501 nM | 100 to 501 nM
20 | COc1nc(C)cc2c1-c1cccnc1CC(=O)N2CC(=O)Nc1ccc(C(F)(F)F)cc1 [#75, 2-(3-methoxy-5-methyl-9-oxo-4,8,12-triazatricyclo[9.4.0.0^2,7]pentadeca-1(11),2,4,6,12,14-hexaen-8-yl)-N-[4-(trifluoromethyl)phenyl]acetamide] | 15.8 to 39.8 nM | 15.8 to 39.8 nM
21 | Cc1cc2c(c(O)n1)-c1cccnc1CC(=O)N2CC(=O)Nc1ccc(C(F)(F)F)cc1 [#76, 2-(3-hydroxy-5-methyl-9-oxo-4,8,12-triazatricyclo[9.4.0.0^2,7]pentadeca-1(11),2(7),3,5,12,14-hexaen-8-yl)-N-[4-(trifluoromethyl)phenyl]acetamide] | 100 to 501 nM | 100 to 501 nM
22 | COc1nc(C)cc2c1-c1cccnc1CC(=O)N2CC(=O)Nc1ccc(C#N)cc1 [#77, N-(4-cyanophenyl)-2-(3-methoxy-5-methyl-9-oxo-4,8,12-triazatricyclo [9.4.0.0^2,7]pentadeca-1(11),2,4,6,12,14-hexaen-8-yl)acetamide] | 100 to 501 nM | 39.8 to 100 nM
23 | O=C(CN1C(=O)Cc2ncccc2-c2c(F)cncc21)Nc1ccc(C(F)(F)F)cc1 [#78, 2-(3-fluoro-9-oxo-5,8,12-triazatricyclo[9.4.0.0^2,7]pentadeca-1(11),2(7),3,5,12,14-hexaen-8-yl)-N-[4-(trifluoromethyl)-phenyl]acetamide] | 100 to 501 nM | 100 to 501 nM
